# Measurements as given in publication PMC4128710 (Biochemical pharmacology, 2014).
# Like-named read-outs stand apart in the source and are kept apart here.
# How the values were obtained:
# [1] = tested on: MIN-6 mouse pancreatic β cells; experiment: Insulin release in MIN6 cells; assay type: cell-based; conditions: MIN-6 cells, 16.7 mM glucose, 1 h
# A2BAR [2] = target: T1, A2BAR (Homo sapiens, UniProt P29275); experiment: ERK1/2 phosphorylation in T24 cells
# T1 sequence (P29275 1-332): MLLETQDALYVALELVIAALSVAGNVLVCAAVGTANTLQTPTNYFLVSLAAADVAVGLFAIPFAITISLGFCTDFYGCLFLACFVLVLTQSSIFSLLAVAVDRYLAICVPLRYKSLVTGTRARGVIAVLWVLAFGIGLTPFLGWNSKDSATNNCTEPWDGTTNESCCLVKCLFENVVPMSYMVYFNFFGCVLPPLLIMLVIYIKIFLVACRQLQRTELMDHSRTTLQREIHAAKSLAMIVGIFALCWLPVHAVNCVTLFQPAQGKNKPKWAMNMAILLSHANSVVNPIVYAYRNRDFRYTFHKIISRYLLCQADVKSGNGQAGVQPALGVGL
# A2BAR [3] = target: T1, A2BAR; experiment: Intracellular calcium mobilization in T24 cells; conditions: T-24, read-out: Max effect Calcium (% of effect of NECA)
# mouse A2BAR [4] = target: T2, mouse A2BAR (Mus musculus, UniProt Q60614); experiment: β-Arrestin2 translocation in PathHunter CHO cells
# T2 sequence (Q60614 1-332): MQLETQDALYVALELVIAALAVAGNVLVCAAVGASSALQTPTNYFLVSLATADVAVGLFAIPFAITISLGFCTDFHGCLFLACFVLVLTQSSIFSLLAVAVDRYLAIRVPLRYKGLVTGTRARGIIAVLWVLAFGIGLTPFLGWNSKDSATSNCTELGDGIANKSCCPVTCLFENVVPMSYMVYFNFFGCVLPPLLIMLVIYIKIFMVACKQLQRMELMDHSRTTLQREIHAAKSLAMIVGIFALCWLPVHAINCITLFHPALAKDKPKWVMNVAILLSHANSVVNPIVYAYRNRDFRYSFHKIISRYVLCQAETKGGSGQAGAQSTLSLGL
# mouse A2BAR [5] = experiment: β-Arrestin2 translocation in PathHunter CHO cells
# A2BAR [6] = target: T1, A2BAR; experiment: ERK1/2 phosphorylation in HEK293 cells
# A2BAR [7] = target: T1, A2BAR; experiment: cAMP accumulation in HEK293 cells overexpressing the A2BAR
# A2BAR [8] = target: T1, A2BAR; experiment: ERK1/2 phosphorylation in HEK293 cells overexpressing the A2BAR
# A2BAR [9] = target: T1, A2BAR; experiment: cAMP accumulation in T24 cells endogenously expressing the A2BAR
# A2BAR [10] = experiment: cAMP accumulation in COS-7 cells endogenously expressing the A2BAR
# A2BAR [11] = target: T1, A2BAR; experiment: cAMP accumulation in HEK293 cells endogenously expressing the A2BAR
# A2BAR [12] = target: T1, A2BAR; experiment: Intracellular calcium mobilization in HEK293 cells; conditions: HEK293, read-out: Max effect Calcium (% of effect of NECA)
# A2BAR [13] = target: T1, A2BAR; experiment: Intracellular calcium mobilization in HEK293 cells overexpressing the A2BAR
# A2BAR [14] = target: T1, A2BAR; experiment: cAMP accumulation in WM266 melanoma cells endogenously expressing the A2BAR; conditions: WM266, read-out: Max effect cAMP accumulation
# A2BAR [15] = target: T1, A2BAR; experiment: cAMP accumulation in 1321N1 astrocytoma cells endogenously expressing the A2BAR
# A2BAR [16] = target: T1, A2BAR
# [17] = HEK293, read-out: Max effect ERK1/2 (% of effect of NECA)
# [18] = HEK293, read-out: Max effect cAMP (% of effect of NECA)
structure (smiles),measurement,setting,value
"N#Cc1c(N)nc(SCC(N)=O)c(C#N)c1-c1ccc(OCC2CC2)cc1 [BAY, 2-[[6-amino-3,5-dicyano-4-[4-(cyclopropylmethoxy)phenyl]-2-pyridinyl]thio]acetamide]",Glucose stimulated insulin secretion,[1],induced insulin secretion
same,ERK1/2 stimulation,A2BAR [2]; T24 cells,did not produce any stimulation
same,Emax,"A2BAR [2]; T-24, read-out: Max effect ERK1/2 (% of effect of NECA)",-9.4 ± 3.8%
same,Emax,A2BAR [3],2.3 ± 1.5%
same,EC50,mouse A2BAR [4],5.62 ± 1.24 µM
same,Kd,mouse A2BAR [4],12.3 µM
same,Emax,"mouse A2BAR [4]; CHO, read-out: Max effect β-arrestin (% of effect of NECA)",26.6 ± 3%
same,log (τ/KA),mouse A2BAR [4]; β-Arrestin pathway,4.30 ± 0.17
same,τ,"mouse A2BAR [4]; β-Arrestin pathway, operational model, CHO mouse A2BAR",0.25
same,Δlog (τ/Ka),"mouse A2BAR [4]; β-Arrestin pathway, relative to NECA",-1.43 ± 0.09
same,ΔΔlog (τ/KA),mouse A2BAR [5]; β-Arrestin versus cAMP reference pathway,2.16
same,Bias,"mouse A2BAR [5]; β-Arrestin versus cAMP, bias ≫1 disfavors the pathway",145
same,EC50,A2BAR [6],0.0688 ± 0.0047 µM
same,Emax,A2BAR [6]; [17],38.3 ± 5.9%
same,EC50,A2BAR [7],0.00614 ± 0.00161 µM
same,Kd,A2BAR [7],0.705 µM
same,Emax,A2BAR [7]; [18],102 ± 1%
same,log (τ/KA),A2BAR [7]; cAMP pathway,8.15 ± 0.38
same,τ,"A2BAR [7]; cAMP pathway, operational model, A2BAR-overexpressing HEK293",100
same,Δlog (τ/Ka),"A2BAR [7]; cAMP pathway, relative to NECA",0.73 ± 0.04
same,EC50,A2BAR [8],0.0289 ± 0.0041 µM
same,Kd,A2BAR [8],0.0595 µM
same,log (τ/KA),A2BAR [8]; ERK1/2 pathway,7.02 ± 0.44
same,τ,"A2BAR [8]; ERK1/2 pathway, operational model, A2BAR-overexpressing HEK293",0.62
same,Δlog (τ/Ka),"A2BAR [8]; ERK1/2 pathway, relative to NECA",1.39 ± 0.17
same,ΔΔlog (τ/KA),A2BAR [8]; ERK1/2 versus cAMP reference pathway,-0.66
same,Bias,"A2BAR [8]; ERK1/2 versus cAMP, bias ≫1 disfavors the pathway",0.22
same,Emax,A2BAR [8]; [17],38.4 ± 3.3%
same,EC50,"A2BAR [9]; EC50 cAMP accumulation, T24 cells, 5 nM A2BAR siRNA",0.102 ± 0.017 µM
same,EC50,"A2BAR [9]; EC50 cAMP accumulation, T24 cells, 50 nM A2BAR siRNA",0.127 ± 0.031 µM
same,EC50,"A2BAR [9]; EC50 cAMP accumulation, T24 cells, 500 nM A2BAR siRNA",0.093 ± 0.019 µM
same,EC50,"A2BAR [9]; EC50 cAMP accumulation, T24 cells, absence of A2BAR siRNA",0.098 ± 0.022 µM
same,EC50,"A2BAR [9]; EC50 cAMP, T24 cells",0.043 ± 0.0177 µM
same,"maximum agonist effect, cAMP accumulation (NECA as 100%)","A2BAR [9]; T24 cells, 5 nM A2BAR siRNA",54 ± 4%
same,"maximum agonist effect, cAMP accumulation (NECA as 100%)","A2BAR [9]; T24 cells, 50 nM A2BAR siRNA",48 ± 6%
same,"maximum agonist effect, cAMP accumulation (NECA as 100%)","A2BAR [9]; T24 cells, 500 nM A2BAR siRNA",36 ± 3%
same,"maximum agonist effect, cAMP accumulation (NECA as 100%)","A2BAR [9]; T24 cells, absence of A2BAR siRNA",68 ± 7%
same,"τ value (operational model), cAMP accumulation","A2BAR [9]; T24 cells, siRNA silencing / overexpression methods",1.19
same,Emax,"A2BAR [9]; T-24, read-out: Max effect cAMP (% of effect of NECA)",62.9 ± 9.6%
same,Max effect cAMP accumulation,A2BAR [10]; NECA = 100,98.3±3.7%
same,EC50,A2BAR [10]; read-out: EC50 cAMP accumulation,0.0079 ± 0.0012 µM
same,EC50,A2BAR [11],0.296 ± 0.146 µM
same,Emax,A2BAR [11]; [18],73 ± 12.1%
same,"τ value (operational model), cAMP accumulation","A2BAR [11]; HEK293 cells, siRNA silencing / overexpression methods",1.54
same,Emax,A2BAR [12],-2.4 ± 1.7%
same,EC50,A2BAR [13],1.1 ± 0.39 µM
same,Kd,A2BAR [13],1.67 µM
same,log (τ/KA),A2BAR [13]; Calcium pathway,4.66 ± 0.35
same,τ,"A2BAR [13]; Calcium pathway, operational model, A2BAR-overexpressing HEK293",0.08
same,ΔΔlog (τ/KA),A2BAR [13]; Calcium versus cAMP reference pathway,4.22
same,Bias,"A2BAR [13]; Calcium versus cAMP, bias ≫1 disfavors the pathway",16600
same,Emax,A2BAR [14],9.8 ± 1.7%
same,EC50,A2BAR [15],0.113 ± 0.017 µM
same,Emax,"A2BAR [15]; 1321-N1, read-out: Max effect cAMP accumulation",52.6 ± 3.1%
same,EC50,A2BAR [16],0.0453 ± 0.0059 µM
same,Emax,"A2BAR [16]; PC-3, read-out: Max effect cAMP accumulation",72.6 ± 5.1%
